# Patent US20160199463A1, “HDAC2 DEFENDS VASCULAR ENDOTHELIUM FROM INJURY” (The Johns Hopkins University, priority 2014, published 2016)
# Entries after “also recorded” stand apart in the source; their conditions may differ. Where two headings read alike, the source gives them in different places. Peptide text beside a SMILES is read from it. * marks the point of attachment. Cbz = O=C(OCc1ccccc1)*
# Experiments:
# [1] = test system: aortic rings of wild-type mice; test: Force tension (wire) myography, vascular relaxation of isolated wild-type mouse aortic rings; format: cell-based; design: Emax: dose or concentration left out as unconfirmed; conditions: for endothelium-independent responses to SNP, dose-dependent vasorelaxation: MGCD0103, MLN4924 or both, FIG. 29B
# Description: (§1) Mouse aorta was isolated and cleaned in ice-cold Krebs-Ringer-bicarbonate solution containing the following (in mM): 118.3 NaCl, 4.7 KCl, 1.6 CaCl2, 1.2 KH2 PO4, 25 NaHCO3, 1.2 MgSO4, and 11.1 dextrose. The aorta was immersed in a bath filled with constantly oxygenated Krebs buffer at 37° C. Equal size thoracic aortic rings (2 mm) were mounted using a microscope, ensuring no damage to the smooth muscle or endothelium. One end of the aortic rings was connected to a transducer, and the other to a micromanipulator. Aorta was passively stretched to an optimal resting tension using the micromanipulator, after which a dose of 60 mM KCl was administered, and repeated after a wash with Krebs buffer. After these washes, all vessels were allowed to equilibrate for 20-30 min in the presence of indomethacin (3 μM). Phenylephrine (1 μM) was administered to induce vasoconstriction. A dosedependent response (1 nM to 10 μM), with the muscarinic agonist, ACH or nitric oxide donor, SNP, was then performed as necessary. The responses were repeated in the presence of inhibitors. Relaxation responses were calculated as a percentage of tension following pre-constriction. Sigmoidal dose-response curves were fitted to data with the minimum constrained to 0. Two to four rings were isolated from each animal and the number of animals in each group (n) was 6.
# NO production in HAECs = test: Nitric oxide production in HAECs (DAF-DA fluorescence, Siever's NO analyzer); format: cell-based, human; conditions: TSA 1 μmol/L with ABH (1 μmol/L)
# Description: (§2) Nitric Oxide levels in HAEC were determined using DAF-DA as per manufacture instructions (Life Sciences). Briefly, cells were loaded with DAF-DA (5 μM) for 20 min and washed 3 times with PBS and incubated for another 30 min in phenol-free media. Fluorescence was determined using a Nikon TE-200 epifluorescence microscope. Images were captured with a Rolera EMC2 camera (Q-Imaging, BC, Canada) with Velocity software (PerkinElmer, Lexington, Mass.). NO production in the cell culture media was also determined by measuring Nitrite levels using a Siever's NO analyzer. NO radicals were measured in cell media collected after 24 hours of treatment using the Oxiselect assay (Cell Biolabs, San Diego, Calif.).
# [2] = test system: calcium-insensitive eNOS in HEK 293 cells; test: NO radicals in medium of HEK 293 cells expressing calcium-insensitive eNOS (DCFH-DiOxyQ assay); format: cell-based, human; conditions: TSA together with ABH
# Description: as §2
# Next, the functional consequences of HDAC inhibition on downstream endothelial cell signaling were evaluated. Because eNOS-derived NO plays a central role in endothelial function, eNOS activity was assessed by measuring NO production using 3 different assays. […] HEK 293 cells lack native eNOS expression, but do produce abundant Arg2. Cell medium from 293 cells transfected with a control plasmid (LacZ) was used as a control background signal that was subtracted from all the groups containing calcium-insensitive endothelial nitric oxide synthase.
# Arg2 = Arg2 protein expression in HAECs (Western blot); format: cell-based, human; conditions: for OxLDL-induced increase in abundance of endothelial arginase: preincubation 8 h, MLN4924 1 μM or MG132 10 μM, then OxLDL 50 μg/mL 24 h
# Description: (§3) After 48 hrs of HAEC cells transfection, cells were lysed in ice cold RIPA lysis buffer consisting of 20 mM Tris-HCl at pH 7.5, 150 mM NaCl, 1 mM EDTA, 1 mM EGTA, 1% NP40, 1% sodium deoxycholate, 1 mM Na3VO4, 2.5 mM sodium pyrophosphate, 1 mM 3-glycerophosphate, 1 μg/mL leupeptin, and a 1:1000 diluted protease inhibitor cocktail (Sigma). For immunoprecipitation studies, whole cell lysate lysates were centrifuged at 14,000×g and supernatants were precleared by incubation with Protein A/G-agarose beads for 2 h at 4° C. with rocking. Agarose beads were then pelleted by centrifugation at 1,000×g. FLAG-Arg2 in precleared lysates were immunoprecipitated by incubation overnight at 4° C. with rocking following addition of anti-FLAG antibody (10 μl). Immune complexes were eluted in 2×SDS sample buffer by boiling for 5 minutes before loading into SDS-PAGE. Western blotting analysis was performed by transferring the SDS gel onto a PVDF membrane and visualized using secondary antibodies conjugated to alkaline phosphatases.
# [3] = test system: arginase activity in HAECs; test: Arginase activity assay (urea production) in HAEC lysates; format: cell-based, human; conditions: for OxLDL-induced increase in activity of endothelial arginase: preincubation 8 h, MLN4924 1 μM or MG132 10 μM, then OxLDL 50 μg/mL 24 h
# Description: HAEC were lysed using RIPA buffer (50 mM of Tris.HCl, pH 7.5, 0.1 mM EDTA, 0.1% Triton X-100, and protease inhibitor), and centrifuged for 30 min at 14,000 g at 4° C. 50 μL (50-100 μg) of supernatant was added to 75 μl of 10 mM MnCl2 made in Tris-HCl (50 mM, pH 7.5) and heat activated by incubating at 55-60° C. for 10 min. 50 μL of L-Arginine that was prepared in 300 mM Tris-HCL, pH 9.7 were then added to the activated cell lysates to achieve final concentrations of 150 mM and incubated at 37° C. for 3 hrs with shaking. The reaction was stopped by adding 400 μL of an acid solution (H2SO4: H3PO4: H20=1:3:7). For colorimetric determination of urea, α-isonitrosopropiophenone (25 μL, 9% in ethanol) was added and further heated at 100° C. for 45 min. Samples were allowed to cool at room temperature in the dark for 10 min and urea concentration was determined by measuring absorbance at 550 nm using a spectrophotometer.
# HDAC2 = HDAC2 protein expression in HAECs (immunoblot); format: cell-based, human; conditions: for HDAC2 levels in OxLDL-exposed HAEC: pretreatment 8 h, MLN4924 1 μM or MG132 10 μM, then OxLDL 50 μg/mL 24 h
# Description: as §3
# [4] = test system: aortic rings from Arg2−/− mice; test: Force tension (wire) myography, vascular relaxation of aortic rings from Arg2-/- mice; format: cell-based, mouse; conditions: Mus musculus, 18 h; read-out: Emax endothelium-dependent relaxation
# Description: as §1
# HDAC4, 5, 6, 7, and 8 = conditions: cited from earlier work
# NEDD8 = test: Protein NEDDylation in HAECs (immunoblot, immunoprecipitation); format: cell-based, human; conditions: HAEC expressing HA-tagged-NEDD8; MLN4924 0, 0.1, 0.3 or 1 μM, dose-dependent
# Description: FIG. 21A-FIG. 21H is a series of graphs and photographs of immunoblots showing inhibition of NEDDylation by MLN4924 improves OxLDL-mediated vascular endothelial dysfunction via downregulation of Arginase 2. Wire myography was used to measure vasorelaxation with acetylcholine (FIG. 21A, Ach) and sodium nitroprusside (FIG. 21B, SNP) in isolated mice aortas. Conditions included 24 h of OxLDL (50 μg/mL) or control medium preceded by 1 h with either vehicle (DMSO) or MLN4924 (1 μM). […] Note that native (and not transgene) HDAC2 protein levels are shown here. […] Note that “0 μgHA-NEDD8” denotes an empty vector (pcDNA3.1) control. *Indicates p b 0.05 vs control; **indicates p b 0.001; n=6 for vascular reactivity and arginase activity assays.
# Densitometry analysis of data from three experiments is shown in top panel. […] Note that “0 μg HA-NEDD8” denotes an empty vector (pcDNA3.1) control. […] Western blots in this figure are representative of 3 independent experiments.
# [5] = MS275 2 μmol/L, CI994 1 μmol/L, MC1568 0.5 μmol/L, PC34051 100 nmol/L, MGCD0103 1 μmol/L
structure (smiles),measurement,setting,value
"NC(CCCCB(O)O)C(=O)O (stereo not shown) [ABH, amino-2-borono-6-hexanoic acid]","Emax acetylcholine-mediated vasorelaxation, TSA-treated rings pretreated with ABH","[1]; TSA 200 nmol/L plus ABH (1 mmol/L), n=6",65.7±12.1%
same,TSA-induced decrease of NO production on coincubation with ABH,NO production in HAECs,failed to occur
same,TSA effect on NO production in the presence of ABH,[2],failed to attenuate
"CC(=O)Nc1ccc(C(=O)Nc2ccccc2N)cc1 [CI994, Tacedinaline]","endothelial Arg2 expression, class-specific HDAC inhibitors",Arg2; [5],no substantial effects
CC(C)C[C@@H](C=O)NC(=O)[C@H](CC(C)C)NC(=O)[C@H](CC(C)C)NC(=O)OCc1ccccc1 [MG132] (Cbz-Leu-Leu-Leu-aldehyde),OxLDL-induced increase in activity of endothelial arginase,[3],abolished
same,OxLDL-induced increase in abundance of endothelial arginase,Arg2,abolished
same,decrease of HDAC2 levels by HA-NEDD8 expression,"HDAC2; MG132 10 μM, 8 h",abolished
same,HDAC2 levels in OxLDL-exposed HAEC,HDAC2,rescued
"Nc1ccccc1NC(=O)c1ccc(CNc2nccc(-c3cccnc3)n2)cc1 [MGCD0103, Mocetinostat]","endothelium-independent responses to SNP, dose-dependent vasorelaxation",[1],no significant differences
same,Ach response in WT aorta,[1]; MGCD0103 preincubation 48 hours,significant attenuation
same,Emax,"[1]; Mus musculus, 18 h, read-out: Emax endothelial-dependent vascular relaxation (acetylcholine)",42.7 ± 8.5%
same,SNP-mediated (endothelium-independent) vasorelaxation versus vehicle-only control,"[1]; TSA 200 nmol/L or MGCD0103 1 μmol/L, 18 hours",no significant difference; also recorded: unaffected
same,Emax at 1 µM,[4],62.4 ± 16.5%
same,"endothelial Arg2 expression, class-specific HDAC inhibitors",Arg2,upregulate
same,"activity to HDAC4, 5, 6, 7, and 8","HDAC4, 5, 6, 7, and 8","selectivity against HDAC2, 3, and 11, and no"
NS(=O)(=O)OC[C@@H]1C[C@@H](n2ccc3c(N[C@H]4CCc5ccccc54)ncnc32)C[C@@H]1O [MLN4924],"endothelium-independent responses to SNP, dose-dependent vasorelaxation",[1],no significant differences
same,endothelial function (acetylcholine dose response) in OxLDL-exposed aortas,[1]; MLN4924 1 μM 1 h before OxLDL 50 μg/mL 24 h,Substantial rescue
same,Ach response in WT aorta,[1]; MLN4924 1.0 μM pretreatment,did not cause any significant changes
same,vascular endothelial dysfunction induced by MGCD0103,[1]; MLN4924 1.0 μM together with MGCD0103,did not reverse
same,"endothelial-dependent vascular relaxation, compound alone",[1]; MLN4924 1 μM without OxLDL,negligible effect
same,endothelial-independent vascular relaxation (sodium nitroprusside),"[1]; OxLDL 50 μg/mL 24 h, MLN4924 1 μM",unaffected
same,arginase activity in the absence of OxLDL,[3]; MLN4924 1 μM,decreased
same,OxLDL-induced increase in activity of endothelial arginase,[3],abolished
same,OxLDL-induced increase in abundance of endothelial arginase,Arg2,abolished
same,HDAC2 protein expression in the absence of OxLDL,"HDAC2; MLN4924 0, 0.1, 0.3 or 1 μM",robust dose-dependent increase
same,HDAC2 levels in OxLDL-exposed HAEC,HDAC2,rescued
same,quantity of NEDDylation conjugates,NEDD8,attenuated
"Nc1ccccc1NC(=O)c1ccc(CNC(=O)OCc2cccnc2)cc1 [MS275, Entinostat]","endothelial Arg2 expression, class-specific HDAC inhibitors",Arg2; [5],no substantial effects
